Structures can show the parent of a compound that is named as a salt.
What was measured:
[1] = Determination of dissolution rate (Example 5); format: physicochemical; details: Solution: 5% glucose + Polysorbate 80
Protocol: A 5% glucose solution was added to each plastic vial containing J1. The vials were shaken and filtered at different time-points. The filtrate was transferred to glass vials and the amount of dissolved J1 was determined by HPLC.

[2] = Stability in aqueous solutions; format: physicochemical
[3] = Stability of melphalan flufenamide dissolved in DMA in a glucose solution; details: dissolved in DMA (dimethylacetamide) in a glucose solution

CCOC(=O)[C@H](Cc1ccc(F)cc1)NC(=O)[C@@H](N)Cc1ccc(N(CCCl)CCCl)cc1 [Experiment J1, melphalanyl-L-p-fluorophenylalanine ethyl ester hydrochloride]
Time (min) to reach steady state dissolution [1]: 1 to 2 min | hydrolysis in water ([2]; water): quickly hydrolyzed | degradation [3]: 7 % degradation/h

N[C@@H](Cc1ccc(N(CCCl)CCCl)cc1)C(=O)O [Melphalan, p-[bis-(2-chloroethyl)amino]phenylalanine, reference compound]
times more stable in aqueous solutions compared to J1 ([2]; aqueous solutions, relative to J1): 10,000 times

From US10869928B2, “Lyophilized preparation of cytotoxic dipeptides” (ONCOPEPTIDES AB, priority 2011, dated 2020)
